Results from patent US6069257A, “Process for the production of tetrazolylbenzopyrans” (SmithKline Beecham p.l.c., priority 1997, dated 2000).

Target: T1, leukotriene D4 receptors (guinea pig lung membranes) (Cavia porcellus, UniProt Q2NNR5)
T1 construct: prepared from tissues obtained from male Hartley guinea pigs; from tissue; host or cells: guinea pig lung membranes (male Hartley guinea pigs)
T1 sequence (Q2NNR5 1-340): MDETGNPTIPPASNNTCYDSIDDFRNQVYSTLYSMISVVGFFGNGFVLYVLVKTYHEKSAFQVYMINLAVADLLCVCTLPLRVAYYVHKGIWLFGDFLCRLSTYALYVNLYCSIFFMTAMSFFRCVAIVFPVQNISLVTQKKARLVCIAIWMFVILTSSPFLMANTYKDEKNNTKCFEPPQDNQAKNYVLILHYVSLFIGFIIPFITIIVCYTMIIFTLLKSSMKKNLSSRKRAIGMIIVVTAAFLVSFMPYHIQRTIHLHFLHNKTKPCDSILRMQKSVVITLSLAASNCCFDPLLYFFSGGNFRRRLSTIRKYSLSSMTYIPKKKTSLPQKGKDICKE
Assay: [3H]-LTD4 binding studies in guinea pig lung membranes
Description: Experimental Procedure for Binding Studies in Guinea-Pig Lungs with Pranlukast and Metabolites
Non-specific binding was determined in the presence of 0.5 uM cold LTD4. Membranes with bound ligand were captured on Whatman GF/C filters using vacuum filtration and a Brandel cell harvester, then washed with ice-cold 25 mM Tris-HCl. pH 7.4. The filters were placed in scintillation vials with 10 ml Ready Protein (Beckman, Fullerton, Calif., U.S.A.) and the radioactivity was determined by scintillation spectrometry.
All data are presented as Mean±S.E.M. Concentration-response curves (0.3-10,000 nM) for each compound were tested in at least 2 assays and run in duplicate. Cell-bound radioactivity was determined for each sample and non-specific binding was established in the presence of 1 uM unlabeled LTD4 and subtracted from control and drug-treated samples.

Compound	Ki [nM]
O=C(Nc1cccc2c(=O)cc(-c3nnnn3O)oc12)c1ccc(OCCCCc2ccccc2)cc1 [Example 1, 4-Oxo-8-[4-(4-phenylbutoxy)benzoylamino]-2-(1-hydroxytetrazol-5-yl)-4H-1-benzopyran]	0.22
O=C(Nc1cccc2c(=O)cc(-c3nnn(O)n3)oc12)c1ccc(OCCCCc2ccccc2)cc1 [Example 2, 4-Oxo-8-[4-(4-phenylbutoxy)benzoylamino]-2-(2-hydroxytetrazol-5-yl)-4H-1-benzopyran]	0.53
